The source of these data is patent publication US7465798B2, “Methods and compositions for selectin inhibition” (Wyeth, priority 2003, dated 2008).

For this experiment, the target named is T1, human P-selectin (Homo sapiens, UniProt P16109).
T1 construct: truncated form of human P-selectin comprised of the lectin and EGF domains (P-LE)
T1 sequence (P16109 42-198): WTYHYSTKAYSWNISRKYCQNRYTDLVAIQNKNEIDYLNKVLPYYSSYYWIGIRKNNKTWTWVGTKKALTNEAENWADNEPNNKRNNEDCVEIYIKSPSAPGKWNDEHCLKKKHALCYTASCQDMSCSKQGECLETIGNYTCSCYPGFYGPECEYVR
The experiment can be described thus: Biacore inhibition of P-selectin binding to PSGL-1 (P-LE to immobilized SGP-3). The settings on record: at 1 mM. The protocol:
Compounds of the invention can be assayed for selectin inhibitory activity using any of the procedures known in the art. One convenient procedure is the determination of IC50 values for inhibition of P-selectin binding to P-selectin glycoprotein ligand-1 (PSGL-1) using Biacore.
The Biacore 3000 is an instrument that uses surface plasmon resonance to detect binding of a solution phase analyte to an immobilized ligand on a sensor chip surface. The analyte sample is injected under flow using a microfluidic system. Binding of analyte to ligand causes a change in the angle of refracted light at the surface of the sensor chip, measured by the Biacore instrument in resonance units (RUs).
SGP-3 is a purified sulfoglycopeptide form of human PSGL-1 that contains the P-selectin binding determinants (See Somers et al., 2000, Cell 103, 467-479). SGP-3 was biotinylated via amine chemistry at a unique C-terminal lysine residue and immobilized on streptavidin-coated SA sensor chip. […]
The Biacore assay measures the signal in RU produced by binding of P-LE to SGP-3 in the presence and absence of inhibitors. Percent inhibition of binding is calculated by dividing the inhibited signal by the uninhibited signal subtracting this value from one then multiplying by one hundred. […] The data from this titration are plotted, RU values vs. concentration, and the IC50 is determined by extrapolation from the plot. […]

For `CC1(C)[C@@H](O[C@H]2O[C@H](C(=O)O)[C@@H](O)[C@H](O)[C@H]2O[C@@H]2O[C@H](C(=O)O)[C@@H](O)[C@H](O)[C@H]2O)CC[C@]2(C)[C@H]3C(=O)C=C4[C@@H]5C[C@@](C)(C(=O)O)CC[C@]5(C)CC[C@@]4(C)[C@]3(C)CC[C@@H]12` [Glycerrhizzin], the “percent inhibition of binding (positive control)” value came to 50%.
